Test results from ChEMBL document CHEMBL1136550, “Discovery of orally bioavailable NK1 receptor antagonists” (Bioorg Med Chem Lett, 2003).
In brackets after ≈: the same amount, converted by molar mass.

Legend:
Substance-P receptor [1] = target: T1, Substance-P receptor (Homo sapiens, UniProt P25103); assay: Displacement of [3H]-substance P from human NK1 receptor expressed in CHO cells; type: cell-based
[2] = LogD distribution coefficient between octanol and PBS at pH7.4; type: physicochemical; settings: pH 7.4, read-out: LogD7.4
[3] = Solubility was measured; type: physicochemical
Caco-2 = assay: Caco-2 permeability was measured; type: functional, cell-based; settings: Homo sapiens
Rattus norvegicus = organism: Rattus norvegicus; assay: Inhibition of contraction induced by 100 mM KCl in isolated rat aorta; type: functional
Substance-P receptor [4] = target: T1, Substance-P receptor; assay: Displacement of [3H]-substance P from human NK1 receptor expressed in CHO cells, at 10e-5 M; type: cell-based
Cavia porcellus [5] = assay: Inhibition of SP-induced pulmonary edema in guinea-pig 30 min after oral administration at a dose of 10 mg/kg; type: functional; settings: 0.5 h
Cavia porcellus [6] = assay: Inhibition of SP-induced pulmonary edema in guinea-pig 60 min after oral administration at a dose of 10 mg/kg; type: functional; settings: 1 h
Cavia porcellus [7] = assay: Inhibition of SP-induced pulmonary edema in guinea-pig 120 min after oral administration at a dose of 10 mg/kg; type: functional; settings: 2 h
Cavia porcellus [8] = assay: Inhibition of SP-induced pulmonary edema in guinea-pig 240 min after oral administration at a dose of 10 mg/kg; type: functional; settings: 4 h
Cavia porcellus [9] = assay: Inhibition of SP-induced pulmonary edema in guinea-pig 30 min after oral administration at a dose of 1 mg/kg; type: functional; settings: 0.5 h
Cavia porcellus [10] = assay: Inhibition of SP-induced pulmonary edema in guinea-pig 60 min after oral administration at a dose of 1 mg/kg; type: functional; settings: 1 h
Cavia porcellus [11] = assay: Inhibition of SP-induced pulmonary edema in guinea-pig 240 min after oral administration at a dose of 1 mg/kg; type: functional; settings: 4 h
[12] = pKa value was evaluated; type: physicochemical

T1 sequence (P25103 whole entry): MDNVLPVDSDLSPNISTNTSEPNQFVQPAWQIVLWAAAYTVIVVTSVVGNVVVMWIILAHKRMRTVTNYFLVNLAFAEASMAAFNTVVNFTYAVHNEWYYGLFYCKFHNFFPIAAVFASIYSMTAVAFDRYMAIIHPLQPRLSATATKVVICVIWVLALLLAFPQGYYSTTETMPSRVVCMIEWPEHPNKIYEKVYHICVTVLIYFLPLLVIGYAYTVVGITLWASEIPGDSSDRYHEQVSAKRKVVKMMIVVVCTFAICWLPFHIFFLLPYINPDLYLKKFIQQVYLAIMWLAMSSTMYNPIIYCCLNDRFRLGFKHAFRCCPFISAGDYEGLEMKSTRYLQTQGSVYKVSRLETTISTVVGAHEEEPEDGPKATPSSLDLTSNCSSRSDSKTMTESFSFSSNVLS

Fc1cccc(C(COCc2cc(C(F)(F)F)cc(C(F)(F)F)c2)N2CCNCC2)c1 (stereo not drawn)
Ki (Substance-P receptor [1]): 2 nM

FC(F)(F)c1cc(COCC(c2ccccc2)N2CCN(CCCCc3nn[nH]n3)CC2)cc(C(F)(F)F)c1 (stereo not drawn)
logD [2]: 2.71
solubility [3]: 200 µg/mL (≈ 359 µM)
Ki (Substance-P receptor [1]): 6.31 nM

FC(F)(F)c1cc(COCC(c2ccccc2)N2CCNCC2)cc(C(F)(F)F)c1 (stereo not drawn)
logD [2]: 2.41
solubility [3]: 200 µg/mL (≈ 463 µM)
Papps (Caco-2): 2.1 ×10⁻⁶ cm/s
pD2 (Rattus norvegicus): 5.38

Cc1ccccc1C(COCc1cc(C(F)(F)F)cc(C(F)(F)F)c1)N1CCNCC1 (stereo not drawn)
Ki (Substance-P receptor [1]): 1 nM

Cc1cc(C)cc(COCC(c2ccccc2)N2CCNCC2)c1 (stereo not drawn)
Ki (Substance-P receptor [1]): 25.1 nM

Fc1ccc(C(COCc2cc(C(F)(F)F)cc(C(F)(F)F)c2)N2CCNCC2)cc1 (stereo not drawn)
Ki (Substance-P receptor [1]): 79.4 nM

COc1c(Br)cc(Br)cc1COCC(c1ccccc1)N1CCNCC1 (stereo not drawn)
Ki (Substance-P receptor [1]): 7.94 nM

FC(F)(F)c1cc(COCC(c2ccccc2)N2CCN(CCN3CCOCC3)CC2)cc(C(F)(F)F)c1 (stereo not drawn)
Ki (Substance-P receptor [1]): 15.8 nM

O=C(O)CCCC(=O)N1CCN(C(COCc2cc(C(F)(F)F)cc(C(F)(F)F)c2)c2ccccc2)CC1 (stereo not drawn)
inhibition (Substance-P receptor [4]): < 20%

Brc1cc(Br)cc(COCC(c2ccccc2)N2CCNCC2)c1 (stereo not drawn)
Ki (Substance-P receptor [1]): 5.01 nM

NC(=O)N1CCN(C(COCc2cc(C(F)(F)F)cc(C(F)(F)F)c2)c2ccccc2)CC1 (stereo not drawn)
inhibition in vivo at 10 mg/kg (Cavia porcellus [5]): 15%
inhibition in vivo at 10 mg/kg (Cavia porcellus [6]): 47%
Ki (Substance-P receptor [1]): 20 nM
inhibition in vivo at 10 mg/kg (Cavia porcellus [7]): 26%

COC(=O)CN1CCN(C(COCc2cc(C(F)(F)F)cc(C(F)(F)F)c2)c2ccccc2)CC1 (stereo not drawn)
Ki (Substance-P receptor [1]): 39.8 nM

FC(F)(F)Oc1ccccc1COCC(c1ccccc1)N1CCNCC1 (stereo not drawn)
inhibition (Substance-P receptor [4]): 50%

C[C@@H](OC[C@@H](c1ccccc1)N1CCN(CC(=O)O)CC1)c1cc(C(F)(F)F)cc(C(F)(F)F)c1
inhibition (Substance-P receptor [4]): < 20%

CN1CCN(C(COCc2cc(C(F)(F)F)cc(C(F)(F)F)c2)c2ccccc2)CC1 (stereo not drawn)
Ki (Substance-P receptor [1]): 1.58 nM

Clc1ccccc1COCC(c1ccccc1)N1CCNCC1 (stereo not drawn)
inhibition (Substance-P receptor [4]): 50%

COc1ccccc1COCC(c1ccccc1)N1CCNCC1 (stereo not drawn)
inhibition (Substance-P receptor [4]): < 20%

COc1cc(CN2CCN(C(COCc3cc(C(F)(F)F)cc(C(F)(F)F)c3)c3ccccc3)C(Cc3ccccc3)C2)cc(OC)c1OC (stereo not drawn)
logD [2]: 5.2
solubility [3]: 0.6 µg/mL (≈ 0.854 µM)
Ki (Substance-P receptor [1]): 251 nM

Oc1n[nH]c(CN2CCN(C(COCc3cc(C(F)(F)F)cc(C(F)(F)F)c3)c3ccccc3)CC2)n1 (stereo not drawn)
Ki (Substance-P receptor [1]): 15.8 nM

FC(F)(F)c1cc(COCC(c2cccc(Cl)c2)N2CCNCC2)cc(C(F)(F)F)c1 (stereo not drawn)
Ki (Substance-P receptor [1]): 1.58 nM

C[C@H](OC[C@H](c1ccccc1)N1CCN(CC(=O)O)CC1)c1cc(C(F)(F)F)cc(C(F)(F)F)c1
Ki (Substance-P receptor [1]): 1.26 nM

O=C(O)CCCCN1CCN(C(COCc2cc(C(F)(F)F)cc(C(F)(F)F)c2)c2ccccc2)CC1 (stereo not drawn)
Ki (Substance-P receptor [1]): 10 nM

CCOC(=O)N1CCN(C(COCc2cc(C(F)(F)F)cc(C(F)(F)F)c2)c2ccccc2)CC1 (stereo not drawn)
Ki (Substance-P receptor [1]): 63.1 nM

FC(F)(F)c1cc(COCC(c2ccccc2)N2CCN(Cc3ccccn3)CC2)cc(C(F)(F)F)c1 (stereo not drawn)
Ki (Substance-P receptor [1]): 2 nM

N#CCN1CCN(C(COCc2cc(C(F)(F)F)cc(C(F)(F)F)c2)c2ccccc2)CC1 (stereo not drawn)
Ki (Substance-P receptor [1]): 7.94 nM

Clc1cccc(COCC(c2ccccc2)N2CCNCC2)c1 (stereo not drawn)
Ki (Substance-P receptor [1]): 398 nM

O=C(O)CN1CCN(C(COCc2cc(C(F)(F)F)cc(C(F)(F)F)c2)c2ccccc2)CC1 (stereo not drawn)
logD [2]: 2.35
solubility [3]: 1300 µg/mL (≈ 2650 µM)
Papps (Caco-2): 9.6 ×10⁻⁶ cm/s
inhibition in vivo at 10 mg/kg (Cavia porcellus [5]): 84%
inhibition in vivo at 10 mg/kg (Cavia porcellus [6]): 76%
inhibition in vivo at 10 mg/kg (Cavia porcellus [8]): 53%
pD2 (Rattus norvegicus): <4
Ki (Substance-P receptor [1]): 15.8 nM
inhibition in vivo at 10 mg/kg (Cavia porcellus [7]): 68%

FC(F)(F)c1ccc(COCC(c2ccccc2)N2CCNCC2)c(C(F)(F)F)c1 (stereo not drawn)
Ki (Substance-P receptor [1]): 15.8 nM

FC(F)(F)c1cc(COCC(c2ccccc2)N2CCN(Cc3nn[nH]n3)CC2)cc(C(F)(F)F)c1 (stereo not drawn)
Ki (Substance-P receptor [1]): 63.1 nM

Fc1cc(COCC(c2ccccc2)N2CCNCC2)cc(C(F)(F)F)c1 (stereo not drawn)
Ki (Substance-P receptor [1]): 12.6 nM

Clc1ccc(COCC(c2ccccc2)N2CCNCC2)cc1Cl (stereo not drawn)
Ki (Substance-P receptor [1]): 100 nM

c1ccc(COCC(c2ccccc2)N2CCNCC2)cc1 (stereo not drawn)
inhibition (Substance-P receptor [4]): < 20%

CCCCN1CCN(C(COCc2cc(C(F)(F)F)cc(C(F)(F)F)c2)c2ccccc2)CC1 (stereo not drawn)
logD [2]: 4.09
solubility [3]: 1 µg/mL (≈ 2.05 µM)
Papps (Caco-2): 5.2 ×10⁻⁶ cm/s
inhibition in vivo at 10 mg/kg (Cavia porcellus [5]): 62%
inhibition in vivo at 10 mg/kg (Cavia porcellus [8]): 58%
pD2 (Rattus norvegicus): 4.6
Ki (Substance-P receptor [1]): 2.51 nM

FC(F)(F)c1cc(COCC(c2ccccc2Cl)N2CCNCC2)cc(C(F)(F)F)c1 (stereo not drawn)
Ki (Substance-P receptor [1]): 1.58 nM

FC(F)(F)c1cc(COCC(c2cccc3ccccc23)N2CCNCC2)cc(C(F)(F)F)c1 (stereo not drawn)
Ki (Substance-P receptor [1]): 1.58 nM

C[C@H](OC[C@@H](c1ccccc1)N1CCN(CC(=O)O)CC1)c1cc(C(F)(F)F)cc(C(F)(F)F)c1
Ki (Substance-P receptor [1]): 3.16 nM

FC(F)(F)c1cc(COCC(c2ccc3ccccc3c2)N2CCNCC2)cc(C(F)(F)F)c1 (stereo not drawn)
Ki (Substance-P receptor [1]): 31.6 nM

C[C@@H](OC[C@H](c1ccccc1)N1CCN(CC(=O)O)CC1)c1cc(C(F)(F)F)cc(C(F)(F)F)c1
inhibition (Substance-P receptor [4]): < 20%

C[C@H](OC[C@H](c1ccccc1)N1CCN(CCOCC(=O)O)CC1)c1cc(C(F)(F)F)cc(C(F)(F)F)c1
logD [2]: 2.64
solubility [3]: > 2000 µg/mL
Papps (Caco-2): 8.7 ×10⁻⁶ cm/s
inhibition in vivo at 1 mg/kg (Cavia porcellus [9]): 77%
inhibition in vivo at 1 mg/kg (Cavia porcellus [10]): 75%
inhibition in vivo at 1 mg/kg (Cavia porcellus [11]): 70%
pD2 (Rattus norvegicus): <4

Fc1cccc(C(COCc2cc(C(F)(F)F)cc(C(F)(F)F)c2)N2CCNCC2)c1F (stereo not drawn)
Ki (Substance-P receptor [1]): 3.16 nM

NC(=O)CN1CCN([C@@H](COCc2cc(C(F)(F)F)cc(C(F)(F)F)c2)c2ccccc2)CC1
logD [2]: 3.26
solubility [3]: 2 µg/mL (≈ 4.09 µM)
pKa [12]: 6.2
Papps (Caco-2): 7.9 ×10⁻⁶ cm/s
pD2 (Rattus norvegicus): 4.27
Ki (Substance-P receptor [1]): 10 nM

Fc1cc(F)cc(COCC(c2ccccc2)N2CCNCC2)c1 (stereo not drawn)
Ki (Substance-P receptor [1]): 200 nM

COc1cccc(C(COCc2cc(C(F)(F)F)cc(C(F)(F)F)c2)N2CCNCC2)c1 (stereo not drawn)
Ki (Substance-P receptor [1]): 1 nM

Clc1cc(Cl)cc(COCC(c2ccccc2)N2CCNCC2)c1 (stereo not drawn)
Ki (Substance-P receptor [1]): 3.16 nM

FC(F)(F)c1cc(COCC(c2cccs2)N2CCNCC2)cc(C(F)(F)F)c1 (stereo not drawn)
Ki (Substance-P receptor [1]): 7.94 nM

FC(F)(F)c1cc(COCC(c2ccc(Cl)c(Cl)c2)N2CCNCC2)cc(C(F)(F)F)c1 (stereo not drawn)
Ki (Substance-P receptor [1]): 6.31 nM

FC(F)(F)c1cc(COCC(c2ccccc2)N2CCN(CCCCc3nnn[nH]3)CC2)cc(C(F)(F)F)c1 (stereo not drawn)
Papps (Caco-2): 2.6 ×10⁻⁶ cm/s
inhibition in vivo at 10 mg/kg (Cavia porcellus [5]): 65%
inhibition in vivo at 10 mg/kg (Cavia porcellus [6]): 99%
inhibition in vivo at 10 mg/kg (Cavia porcellus [8]): 20%
pD2 (Rattus norvegicus): <4
inhibition in vivo at 10 mg/kg (Cavia porcellus [7]): 65%

COc1ccccc1C(COCc1cc(C(F)(F)F)cc(C(F)(F)F)c1)N1CCNCC1 (stereo not drawn)
Ki (Substance-P receptor [1]): 6.31 nM

C[C@@H](OC[C@@H](c1ccccc1)N1CCN(CCOCC(=O)O)CC1)c1cc(C(F)(F)F)cc(C(F)(F)F)c1
inhibition (Substance-P receptor [4]): < 20%

COc1ccc(C(COCc2cc(C(F)(F)F)cc(C(F)(F)F)c2)N2CCNCC2)cc1 (stereo not drawn)
Ki (Substance-P receptor [1]): 50.1 nM

O=C(O)COCCN1CCN(C(COCc2cc(C(F)(F)F)cc(C(F)(F)F)c2)c2ccccc2)CC1 (stereo not drawn)
logD [2]: 2.17
solubility [3]: > 2000 µg/mL
Papps (Caco-2): 4.2 ×10⁻⁶ cm/s
inhibition in vivo at 10 mg/kg (Cavia porcellus [5]): 53%
inhibition in vivo at 10 mg/kg (Cavia porcellus [6]): 61%
inhibition in vivo at 10 mg/kg (Cavia porcellus [8]): 29%
pD2 (Rattus norvegicus): <4
Ki (Substance-P receptor [1]): 15.8 nM
inhibition in vivo at 10 mg/kg (Cavia porcellus [7]): 54%

NC(=O)CN1CCN([C@H](COCc2cc(C(F)(F)F)cc(C(F)(F)F)c2)c2ccccc2)CC1
pKa [12]: 6.2
Ki (Substance-P receptor [1]): 7.94 nM

Fc1ccccc1C(COCc1cc(C(F)(F)F)cc(C(F)(F)F)c1)N1CCNCC1 (stereo not drawn)
Ki (Substance-P receptor [1]): 5.01 nM

FC(F)(F)c1cc(COCC(c2ccco2)N2CCNCC2)cc(C(F)(F)F)c1 (stereo not drawn)
Ki (Substance-P receptor [1]): 158 nM

Cc1cccc(C(COCc2cc(C(F)(F)F)cc(C(F)(F)F)c2)N2CCNCC2)c1 (stereo not drawn)
Ki (Substance-P receptor [1]): 3.16 nM

C[C@@H](OC[C@H](c1ccccc1)N1CCN(CCOCC(=O)O)CC1)c1cc(C(F)(F)F)cc(C(F)(F)F)c1
inhibition (Substance-P receptor [4]): < 20%

COc1cc(COCC(c2ccccc2)N2CCNCC2)cc(OC)c1OC (stereo not drawn)
Ki (Substance-P receptor [1]): 126 nM

NC(=O)COCCN1CCN(C(COCc2cc(C(F)(F)F)cc(C(F)(F)F)c2)c2ccccc2)CC1 (stereo not drawn)
pKa [12]: 7.4
Ki (Substance-P receptor [1]): 3.16 nM
